{"source": "patent US9056804B2", "about": "“Urease inhibitor formulations” (Incitec Pivot Limited, priority 2011, dated 2015)", "key": {"[1]": {"system": "urease", "assay": "Soil-water suspension incubation, ammonium formed from urea (17 days)", "type": "biochemical", "conditions": "72% inhibition at 50 μg/200 ml versus NBPT at 400 μg/200 ml", "protocol": "The ammonium produced was measured as per Example 9."}, "[2]": {"system": "fish, algae and invertebrates", "conditions": "cited from earlier work"}}}
{"smiles": "NP(N)(=O)Nc1ccccc1[N+](=O)[O-]", "note": "[Example 2-NPT, 2-nitrophenyl phosphoric triamide]", "values": [{"measurement": "activity relative to NBPT", "setting": "[1]", "result": "about eight times more active than NBPT"}]}
{"smiles": "O=S1(=O)CCCC1", "note": "[tetramethylene sulfone]", "values": [{"measurement": "LC50", "setting": "[2]", "result": "greater than 1000 mg/l"}]}
